Experimental data taken from publication PMC12679848, “Sulphonamide derivatives with a triazine core as novel inducers of apoptosis and pyroptosis in glioblastoma multiforme cells” (Journal of Enzyme Inhibition and Medicinal Chemistry, 2025).

Key:
A172 = assay: LDH release assay, A172; format: cell-based, human; settings: A172, 1.5 μM, 24 h
Method: Analogous to the procedure described in the previous section, A172 and U-87 MG cells were cultured and plated in 96-well plates. The LDH-Cytotoxicity Assay Kit II (ab65393) (Abcam, Cambridge, UK) was used to assess cytotoxicity according to the manufacturer’s protocol. The test compounds MM118 and MM119 and the reference compound temozolomide (TMZ) were added to the cells at a concentration of 1.5 μM. After 24 h of exposure, the medium was collected, centrifuged and 10 μL of each sample was transferred to a new 96-well plate. In the next step, 100 μL of LDH Reaction Mix was added to each well and incubated for 30 min at room temperature. Absorbance was measured at 450 nm using an Absorbance 96 microplate reader (Byonoy GmbH, Hamburg, Germany). Cytotoxicity was calculated according to the formula provided by the manufacturer: Cytotoxicity (%) = ((Test Sample – Low Control)/(High Control – Low Control)) X 100, where Low Control - control without added compound, High Control with added 10 µL Lysis Buffer II.

U-118 MG = assay: MTT assay, U-118 MG; format: cell-based; settings: Homo sapiens, 24 h of incubation, read-out: IC50 values ± SEM, MTT assay
Method: (§1) Human glioblastoma cell lines (A172 CRL-1620™, U-87 MG HTB-14™, U-118 MG HTB-15™, T98G CRL-1690™) and the mouse astrocyte cell line (C8-D1A CRL-2541™) were obtained from the American Type Culture Collection (ATCC, Manassas, VA, USA). The cell lines were cultured in complete medium: DMEM (Corning, Kennebunk, ME, USA) for C8-D1A and T98G, and EMEM (ATCC, Manassas, VA, USA) for A172, U-87 MG, U118MG. The media were supplemented with 10% foetal bovine serum (Eurx, Gdansk, Poland) and 1% penicillin-streptomycin solution (Corning, Kennebunk, ME, USA). Cells were cultured in cell culture flasks (Sarstedt, Numbrecht, Germany) at 37 °C in 5% CO2. For experiments, cells were washed with phosphate-buffered saline without calcium and magnesium (Corning, Kennebunk, ME, USA) and treated with 0.05% trypsin and 0.02% EDTA (Corning, Kennebunk, ME, USA). Cells were counted using a Sceptre 3.0 cell counter (Merck Millipore, Burlington, MA, USA) prior to seeding into plates. For 6-well plates, 5 x 10^5 cells/mL were seeded, while for 96-well plates (Sarstedt, Numbrecht, Germany), 1 x 10^5 cells/mL were seeded in 100 μL of the medium.
(§2) The cell lines were seeded in 96-well plates and cultured according to the methodology described in the previous section. Cells were then treated with the novel derivatives MM118 and MM119 and the reference compound temozolomide (TMZ) (Sigma-Aldrich, St. Louis, MO, USA) at concentrations of 0.1, 0.25, 0.5, 1.0, 2.5, 5.0, and 10.0 μM for 24 h. The MTT assay was performed using a solution of 3–(4,5-dimethyl-2-thiazolyl)-2,5-diphenyl-2H-tetrazolium bromide (Sigma-Aldrich, St. Louis, MO, USA) at a concentration of 5 mg/mL in phosphate-buffered saline without calcium and magnesium (Corning, Kennebunk, ME, USA). After 24 h incubation with test compounds, 10 μL MTT solution was added to each well, and cells were incubated for another 2 h at 37 °C. The cells were then lysed in 100 μL lysis buffer (25 mM HCl, 2% acetic acid, 3% DMF, and 5% SDS, adjusted to pH 4.7). Absorbance was measured at 570 nm using an Absorbance 96 microplate reader (Byonoy GmbH, Hamburg, Germany).

caspase 8 = assay: Caspase 8 activation (FAM FLICA), A172; format: cell-based, human; settings: A172, 1.5 μM, 24 h
Method: (§3) The activity of caspase 1, caspase 3/7, caspase 8, and caspase 9 was evaluated through the utilisation of FAM FLICA Caspase Assays (ImmunoChemistry Technologies, Bloomington, MN, USA), in accordance with the established protocols. Following treatment with the compounds, the cells were collected at a concentration of 1 × 10^6 cells/mL, washed twice with cold PBS, and resuspended in 290 μL of PBS. The subsequent step involved the addition of 10 μL of 30X FLICA solution, followed by incubation at 37 °C in the absence of light for one hour. Then, 2 ml of Apoptosis Wash Buffer was added, and the samples were washed twice. A 300 μL aliquot of each sample was transferred to a BD FACSCanto II flow cytometer (Becton Dickinson Biosciences, San Jose, CA, USA), where 10,000 events per sample were recorded. The resulting data was then analysed using FACSDiva software, version 6.1.3 (BD Biosciences Systems, San Jose, CA, USA).

U-87 MG = assay: MTT assay, U-87 MG; format: cell-based; settings: Homo sapiens, 24 h of incubation, read-out: IC50 values ± SEM, MTT assay
Method: as §1, §2

caspase 9 = assay: Caspase 9 activation (FAM FLICA), U-87 MG; format: cell-based, human; settings: 1.5 μM, 24 h
Method: as §3

NF-κB = assay: NF-kB staining (immunofluorescence, confocal); format: cell-based; settings: 1.5 μM, 24 h of treatment
Method: Location of NF-kB was evaluated by immunofluorescence staining. Cells were cultured on sterile coverslips placed in 6-well plates and treated with compounds MM118, MM119, and TMZ at a concentration of 1.5 μM. After 24 h of treatment, cells were fixed with 4% paraformaldehyde for 15 min at room temperature, then permeabilized with 0.1% Triton X-100 in PBS for 10 min. Following permeabilization, cells were blocked with 2% BSA (bovine serum albumin; Cell Signalling Technology, Danvers, MA, USA) in PBS for 30 min to prevent non-specific binding. Subsequently, cells were incubated overnight at 4 °C with a NF-KB antibody directly conjugated with Alexa Fluor 647 (#D14E12; Cell Signalling Technology, Danvers, MA, USA). The next day, after washing with PBS, nuclei were counterstained with DAPI (4′,6-diamidino-2-phenylindole; Sigma-Aldrich, St. Louis, MO, USA) for 5 min at room temperature. Coverslips were mounted onto glass slides using an antifade mounting medium and imaged using a Stellaris 5 confocal microscope (Leica Microsystems, GmbH, Wetzlar, Germany). Images were analysed using ImageJ software (Bethesda, MD, USA).

caspase 1 = assay: Caspase 1 activation (FAM FLICA), U-87 MG; format: cell-based, human; settings: 24 h
Method: Given the activation of oxidative stress and the occurrence of apoptotic cell death, we decided to verify whether other cell death pathways are triggered. The level of pyroptosis induction of the newly synthesised compounds MM118 and MM119 was determined by assessing the activation of caspase 1. This method facilitates the identification of cells undergoing pyroptosis by detecting the active form of caspase 1, which is a pivotal mediator in the pyroptotic pathway. The tested compounds were analysed on human A172 and U-87 MG glioblastoma multiforme cell lines using concentrations of 1 μM and 1.5 μM for a period of 24 h. […] Conversely, for compound MM119 in line A172, caspase 1 activation was 12.35 ± 2.00% at a concentration of 1 μM and 21.30 ± 1.57% at a concentration of 1.5 μM. For the U-87 MG line, the values were 12.25 ± 2.16% and 24.50 ± 2.11%, respectively.
as §3

| Compound | LDH release, cytotoxicity (A172) [%] | IC50 (U-118 MG) [nM] | Active caspase 8 (cell population) (caspase 8) | IC50 (U-87 MG) [nM] | Active caspase 9 (cell population) (caspase 9) | NF-κB localisation (NF-κB) | Active caspase 1 (cell population) (caspase 1; 1.0 μM) [%] | Active caspase 1 (cell population) (caspase 1; 1.5 μM) |
| --- | --- | --- | --- | --- | --- | --- | --- | --- |
| CCC(CO)NS(=O)(=O)c1ccc(-n2nc(C)c3nc4nnnn4nc32)cc1 (stereo in doubt) [MM118, N-(R)-(1-hydroxy-but-2-yl)-4-[7-methyl-5H-pyrazolo[4,3-e]tetrazolo[1,5-b][1]^,[2]^,[4]triazin-5-yl)]benzenesulfonamide] | 16.59 ± 1.71 | 471 ± 191 | 42.85 ± 5.36% | 992 ± 370 | 67.23 ± 1.66% | NF-κB translocates to the cell nucleus | 17.15 ± 1.81 | 26.65 ± 2.28% |
| CCC(CO)NS(=O)(=O)c1ccc(-n2nc(C)c3nc4nnnn4nc32)cc1 (stereo in doubt) [MM119, N-(S)-(1-hydroxy-but-2-yl)-4-[7-methyl-5H-pyrazolo[4,3-e]tetrazolo[1,5-b][1]^,[2]^,[4]triazin-5-yl)]benzenesulfonamide] | 13.44 ± 2.87 | 670 ± 173 | 34.35 ± 7.58% | 1190 ± 422 | 51.45 ± 1.63% | NF-κB translocates to the cell nucleus | 12.25 ± 2.16 | 24.50 ± 2.11% |
| Cn1nnc2c(C(N)=O)ncn2c1=O [TMZ, temozolomide, reference compound] | −0.61 ± 2.02 | > 10000 | No significant statistical differences | > 10000 | no significant differences | NF-κB translocates to the cell nucleus | – | no significant differences |
